The structures appear in SMILES notation.

Series [1] can be described thus: renal values (creatinine) in long-term applications. Format: in vivo. The note with it: long-term applications over several months, therapeutically effective dosages. The source says: Oleyl phosphocholine is the first alkyl phosphocholine which can be used orally and intravenously.
Series [2] can be described thus: stability in injection or infusion solutions or tablets. Format: physicochemical. The note with it: 30° C. The source says:
For use in veterinary medicine, it is also useful that mixtures of oleyl phosphocholine (90%) and hexadecyl phosphocholine (10%) can be used and can be made available extremely inexpensively from olive oil.

For series [3] the following is noted: animal experiments.
In series [4] the test system is canine leishmaniasis. Put plainly: dosage range (start of activity to start of toxicity) in dog. Format: in vivo. The note with it: higher doses not tolerated, lower doses almost ineffective.

With `CCCCCCCC/C=C\CCCCCCCCOP(=O)([O-])OCC[N+](C)(C)C` [OlPC, oleyl phosphocholine], the “renal values (increase in creatinine)” value in series [1] is “no deterioration in the renal values”. The stability result in series [2] is listed as “can be guaranteed over a longer period”. Also, in series [3], the “therapeutic action compared to C18-PC (octadecyl) and C18:1(trans)-PC (elaidyl)” value was “markedly superior”.

With `CCCCCCCCCCCCCCCCOP(=O)([O-])OCC[N+](C)(C)C` [HePC, hexadecyl phosphocholine], in series [4], the “dose at which activity against canine leishmaniasis started” value is recorded as 3 mg per kg body weight per day.

(Values after patent publication US9326989B2, “Oleyl phosphocholine” (Max-Planck-Gesellschaft zur Foerderung der Wissenschaften …, priority 2007, dated 2016).)
